Experimental findings from paper PMC12598805, “Crystal Structure–Activity Relationship of Some MeO Phenylacrylonitriles: Dual Antimicrobial–Cytotoxic Effects and in Silico Perspectives” (ChemistryOpen, 2025) are described below.

What all share (assay type): cell-based
Assay [1] relates to Pseudomonas aeruginosa (ATCC 27853). Kind of assay: Agar diffusion, zone of inhibition. Conditions: P.aeruginosa, compounds at 50 mg mL^−1; for zone of inhibition at 50 mg/mL: Pseudomonas aeruginosa, ATCC27853. The text has this:
(§1) The antibacterial and antifungal activities were reported utilizing the method described by the Clinical & Laboratory Standards Institute.^[ [31], [32] ^] Agar diffusion method was used to determine the antimicrobial activity of the synthesized substances. The media used were mueller hinton agar (MHA) for bacteria and sabouraud‐dextrose agar (SDA) for fungi (Merck), as recommended by the manufacturer.
(§2) The synthesized compounds were initially investigated for their antimicrobial activity to elucidate the potential therapeutic utility against various pathogenic microbes using the agar plate diffusion method. The compounds were tested at a concentration of 50 mg mL^−1, and the antibiotics (ampicillin, kanamycin, and amphotericin B) were used at 5 mg mL^−1. […] K.pneumoniae and B.cereus were resistant to ampicillin, while they were susceptible to kanamycin with inhibition values of 30 and 26 mm, respectively. No antimicrobial activity of the compounds was observed against E.faecalis, S.typhimurium, K.pneumoniae, and for the fungus compared to Amphotericin B (20 mm). […]
(§3) Pseudomonas aeruginosa (ATCC 27853) […]
(§4) ATCC: American Type Culture Collection; NRRL: Northern Regional Research Laboratory The compounds 2(a-c) obtained could only be completely solubilised with dimethyl sulphoxide (DMSO) and the highest possible stock solutions of 50 mg.mL-1 were prepared. To these wells 50 μl of the previously prepared substances were transferred using sterile micropipette tips. For comparison, Ampicillin and kanamycin antibiotics for bacteria and Amphotericin B antibiotics for fungus were used as positive controls and DMSO was used as negative control. The prepared petri plates were kept at +4°C for about 1 hour and then the bacterial cultures were incubated at 37°C for 18-24 hours and mould cultures at 27-30°C for 48-72 hours. The zones formed were measured millimetrically with callipers. The experiments were performed with three repetitions. […]
(In general: In agar diffusion tests the substance spreads into inoculated agar from a disc or well.)

Assay [2] has as its system Staphylococcus aureus (ATCC 29213). The experiment in a line: Agar diffusion, zone of inhibition. As to conditions: S.aureus, compounds at 50 mg mL^−1; for zone of inhibition at 50 mg/mL: Staphylococcus aureus, ATCC29213.
From the text: as §1, §2
(§5) Staphylococcus aureus (ATCC 29213) […]
as §4

Assay [3] concerns Bacillus subtilis (ATCC-19659). Kind of assay: Agar diffusion, zone of inhibition. As to conditions: B.subtilis, compounds at 50 mg mL^−1; for zone of inhibition at 50 mg/mL: Bacillus subtilis, ATCC19659.
From the text: as §1, §2, §4

The test system of assay [4] is Salmonella typhimurium (NRRL-B-4420). Kind of assay: Agar diffusion, zone of inhibition. As to conditions: Salmonella enterica; S.typhimurium; compounds at 50 mg mL^−1.
From the text: as §1, §2
Salmonella typhimurium (NRRL-B-4420) […]
as §4

In assay [5] the test system is Micrococcus luteus (NRRL-B-1018). Kind of assay: Agar diffusion, zone of inhibition. As to conditions: M.luteus, compounds at 50 mg mL^−1; for zone of inhibition at 50 mg/mL: Micrococcus luteus, NRRLB1018.
From the text: as §1, §2
(§6) Micrococcus luteus (NRRL-B-1018) […]
as §4

Assay [6] has as its system Bacillus cereus (ATCC-10876). Kind of assay: Agar diffusion, zone of inhibition. As to conditions: B.cereus, compounds at 50 mg mL^−1; for zone of inhibition at 50 mg/mL: Bacillus cereus, ATCC10876.
From the text: as §1
The synthesized compounds were initially investigated for their antimicrobial activity to elucidate the potential therapeutic utility against various pathogenic microbes using the agar plate diffusion method. The compounds were tested at a concentration of 50 mg mL^−1, and the antibiotics (ampicillin, kanamycin, and amphotericin B) were used at 5 mg mL^−1. […] K.pneumoniae and B.cereus were resistant to ampicillin, while they were susceptible to kanamycin with inhibition values of 30 and 26 mm, respectively. No antimicrobial activity of the compounds was observed against E.faecalis, S.typhimurium, K.pneumoniae, and for the fungus compared to Amphotericin B (20 mm).
(§7) Bacillus cereus (ATCC-10876) […]
as §4

In assay [7] the test system is Klebsiella pneumoniae (ATCC-70063). The experiment in a line: Agar diffusion, zone of inhibition. As to conditions: Klebsiella pneumoniae, ATCC70063; K.pneumoniae; compounds at 50 mg mL^−1.
From the text: as §1, §2
Klebsiella pneumoniae (ATCC-70063)
as §4

Assay [8] relates to Pseudomonas aeruginosa (ATCC 27853). The experiment in a line: Broth microdilution MIC. Conditions: ATCC27853, P.aeruginosa. The protocol: as §3
(§8) ATCC: American Type Culture Collection; NRRL: Northern Regional Research Laboratory The compounds 2(a-c) obtained could only be completely solubilised with dimethyl sulphoxide (DMSO) and the highest possible stock solutions of 50 mg.mL-1 were prepared. […]
(§9) 3.1. Determination of Minimum Inhibition Concentration (MIC)
(§10) The minimum inhibition concentration (MIC) values of the compounds 2(a-c) against the test bacteria used in the study were determined according to the broth microdilution method.[1-2] MHB or SDB was used as test medium and bacterial and yeast suspensions were prepared at 0.5 Mc Farland concentration for each test bacteria. Double layer serial dilutions were prepared in "U" type 96-well microtiter plates. Medium+bacteria suspensions containing only medium in the first row, medium+bacteria in the second row and the final concentrations of the synthesised substances in the other rows between 25 mg.mL-1 and […] were added to the wells with a final volume of 200
(§11) μL. Ampicillin, Kanamycin and Amphotericin B standard antibiotics were used as positive controls.
(§12) Bacteria were incubated at 37±0.1 °C and C. albicans at 30±0.1 °C for 24-48 hours and the lowest concentration without growth was determined as MIC. Tests were performed in two parallel runs and mean values were given as a result. […]

Assay [9] deals with Staphylococcus aureus (ATCC 29213). The experiment in a line: Broth microdilution MIC. Conditions: ATCC29213, S.aureus. As for the experimental part:
as §5, §8, §9, §10, §11, §12
(In general: Broth dilution looks for growth in wells or tubes with falling amounts of substance.)

Assay [10] has as its system Bacillus subtilis (ATCC-19659). Kind of assay: Broth microdilution MIC. Conditions: ATCC19659, B.subtilis, read-out: MIC. The protocol: as §8, §9, §10, §11, §12
The subject of assay [11] is Micrococcus luteus (NRRL-B-1018). Kind of assay: Broth microdilution MIC. As to conditions: NRRLB1018, M.luteus. The protocol: as §6, §8, §9, §10, §11, §12
The subject of assay [12] is Bacillus cereus (ATCC-10876). The experiment in a line: Broth microdilution MIC. Conditions: Bacillus cereus, ATCC10876; B.cereus; read-out: MIC. The protocol: as §7, §8, §9, §10, §11, §12
Assay [13] concerns Pseudomonas aeruginosa (ATCC 27853). The experiment in a line: MBC by sub-culture from wells without growth. As to conditions: ATCC27853, P.aeruginosa. As for the experimental part:
as §3, §8, §9, §10, §11
(§13) Bacteria were incubated at 37±0.1 °C and C. albicans at 30±0.1 °C for 24-48 hours and the lowest concentration without growth was determined as MIC. Tests were performed in two parallel runs and mean values were given as a result. In order to estimate “the minimum bactericidal/fungicidal concentrations (MBC/MFC) of the synthesised acrylonitrile derivatives “needed to indicate […] killing of the original inoculum,” 10 μl was taken from the wells with no observed growth and further sub-cultured onto their agar media (MHA and SDA for bacterial and fungal strains, respectively).[3] […]

The test system of assay [14] is Micrococcus luteus (NRRL-B-1018). Kind of assay: MBC by sub-culture from wells without growth. As to conditions: NRRLB1018, M.luteus. The protocol: as §6, §8, §9, §10, §11, §13
Assay [15] concerns Bacillus cereus (ATCC-10876). Kind of assay: MBC by sub-culture from wells without growth. As to conditions: Bacillus cereus, ATCC10876; B.cereus; read-out: MBC. As for the experimental part: as §7, §8, §9, §10, §11, §13

Broadly, the zone of inhibition is the extent of the growth-free halo in a diffusion test. A low value points to little suppression of growth. One may read the MIC as the least concentration at which growth counts as inhibited. Usually MBC stands for the lowest tested concentration that kills the bacteria rather than only halting them.

Each structure is given as a SMILES string. In brackets after ≈: the same amount, converted by molar mass.

As for `COc1ccc(C=C(C#N)c2ccccc2)cc1` [2a, 3‐(4‐methoxyphenyl)‐2‐phenylacrylonitrile], the zone of inhibition in [1] came to 13 ± 1.41 mm; in assay [2], 14 ± 0.71 mm; in [3], 13 ± 0.71 mm; in [5], 14 ± 0.71 mm; in assay [6] it was 15 ± 2.12 mm. Also, the zone of inhibition at 50 mg/mL is 13 mm in assay [1]; 14 mm in [2]; 13 mm in [3]; < 6 mm in assay [4]; 14 mm in assay [5]; 15 mm in assay [6]. For the same molecule, the zone of inhibition at 50 mg/mL in assay [7] is < 6 mm. Moreover, the MIC came to 5 mg/mL (≈ 21.3 mM) in assay [8]; 12.5 mg/mL (≈ 53.1 mM) in assay [9]; 25 mg/mL (≈ 106 mM) in assay [10]; 6.25 mg/mL (≈ 26.6 mM) in assay [11]; 12.5 mg/mL (≈ 53.1 mM) in assay [12]. Also, the MBC in assay [13] came to 5 mg/mL (≈ 21.3 mM); in [14], 6.25 mg/mL (≈ 26.6 mM); in [15] it was 12.5 mg/mL (≈ 53.1 mM).

On to `COc1ccc(/C=C(\C#N)c2ccc(F)cc2)cc1` [2b], for which the zone of inhibition came out at 12 ± 0.71 mm in assay [1]; 13 ± 0 mm in assay [2]; 13 ± 2.12 mm in assay [3]; 14 ± 0.71 mm in assay [5]; 13 ± 2.83 mm in assay [6]. Besides, the zone of inhibition at 50 mg/mL in [1] is 12 mm; in assay [2] it was 13 mm; in assay [3] it was 13 mm; in assay [4], < 6 mm; in assay [5], 14 mm; in [6], 13 mm. In addition, the zone of inhibition at 50 mg/mL in assay [7] is < 6 mm. Besides, the MIC in assay [8] came out at 12.5 mg/mL (≈ 49.4 mM); in assay [9] it was 12.5 mg/mL (≈ 49.4 mM); in [10], 25 mg/mL (≈ 98.7 mM); in assay [11], 12.5 mg/mL (≈ 49.4 mM); in assay [12], 12.5 mg/mL (≈ 49.4 mM). For the same molecule, the MBC in [13], in [14] and in assay [15] was 12.5 mg/mL (≈ 49.4 mM) each time.

Turning to `COc1ccc(/C=C(\C#N)c2cc(C(F)(F)F)cc(C(F)(F)F)c2)cc1` [2c], the zone of inhibition in [1] is 15 ± 0.71 mm; in assay [2], 14 ± 1.41 mm; in assay [3], 14 ± 0 mm; in assay [5], 15 ± 0.71 mm; in assay [6], 14 ± 0.71 mm. Also, the zone of inhibition at 50 mg/mL in assay [1] is 15 mm; in [2], 14 mm; in assay [3], 14 mm; in [4], < 6 mm; in assay [5], 15 mm; in assay [6] it was 14 mm. In assay [7], the zone of inhibition at 50 mg/mL is < 6 mm. The MIC worked out at 12.5 mg/mL (≈ 33.7 mM) in assay [8]; 6.25 mg/mL (≈ 16.8 mM) in assay [9]; 25 mg/mL (≈ 67.3 mM) in assay [10]; 2.5 mg/mL (≈ 6.73 mM) in assay [11]; 12.5 mg/mL (≈ 33.7 mM) in [12]. The MBC was 12.5 mg/mL (≈ 33.7 mM) in [13], 5 mg/mL (≈ 13.5 mM) in [14] and 12.5 mg/mL (≈ 33.7 mM) in assay [15].
